Data taken from PubChem BioAssay (NCI).
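Tested at 5 concentrations; 48 h exposure; 96-well plates; endpoints linearly interpolated, else capped at highest concentration. Definition used: TGI = concentration required for complete inhibition of growth.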

How the values were obtained:
Experiment in all cases: growth of human tumour cells (NCI), 48 h
[1] = tested on: XF 498 CNS
[2] = tested on: SK-MEL-28 melanoma
[3] = tested on: EKVX NSCLC
[4] = tested on: TK-10 renal
[5] = tested on: SF-295 CNS
[6] = tested on: DLD-1 colon
[7] = tested on: SF-268 CNS
[8] = tested on: SK-OV-3 ovarian
[9] = tested on: M19-MEL melanoma
[10] = tested on: SNB-78 CNS
[11] = tested on: NCI-H226 lung
[12] = tested on: K-562 leukemia
[13] = tested on: MDA-N
[14] = tested on: HS 578T breast
[15] = tested on: OVCAR-8 ovarian
[16] = tested on: UACC-62 melanoma
[17] = tested on: UO-31 renal
[18] = tested on: RPMI-8226 leukemia
[19] = tested on: LXFL 529 NSCLC
[20] = tested on: HOP-92 NSCLC
[21] = tested on: SF-539 CNS
[22] = tested on: CCRF-CEM leukemia
[23] = tested on: ACHN renal
[24] = tested on: SK-MEL-2 melanoma
[25] = tested on: OVCAR-3 ovarian
[26] = tested on: A549 NSCLC
[27] = tested on: HOP-18 NSCLC
[28] = tested on: M14 melanoma
[29] = tested on: HCT-15 colon
[30] = tested on: MDA-MB-435
[31] = tested on: SN12C renal
[32] = tested on: MALME-3M melanoma
[33] = tested on: DMS 273 small cell lung
[34] = tested on: HL-60(TB) leukemia
[35] = tested on: OVCAR-5 ovarian
[36] = tested on: 786-0 renal
[37] = tested on: NCI-H460 lung
[38] = tested on: HT29 colon
[39] = tested on: OVCAR-4 ovarian
[40] = tested on: PC-3 prostate
[41] = tested on: KM20L2 colon
[42] = tested on: HOP-62 NSCLC
[43] = tested on: DU-145 prostate
[44] = tested on: CAKI-1 renal
[45] = tested on: HCC-2998 colon
[46] = tested on: MDA-MB-231 breast
[47] = tested on: COLO 205 colon
[48] = tested on: A498 renal
[49] = tested on: NCI/ADR-RES ovarian
[50] = tested on: SW-620 colon
[51] = tested on: T-47D breast
[52] = tested on: LOX IMVI melanoma
[53] = tested on: NCI-H522 lung
[54] = tested on: BT-549 breast
[55] = tested on: KM12 colon
[56] = tested on: SNB-75 CNS
[57] = tested on: UACC-257 melanoma
[58] = tested on: SR leukemia
[59] = tested on: HCT-116 colon
[60] = tested on: MOLT-4 leukemia
[61] = tested on: NCI-H23 lung
[62] = tested on: SK-MEL-5 melanoma
[63] = tested on: RXF 393 renal
[64] = tested on: SNB-19 CNS
[65] = tested on: U251 CNS
[66] = tested on: IGROV1 ovarian
[67] = tested on: DMS 114 small cell lung

O=c1[nH]c2ccccc2nc1CBr
TGI [1]: 3.51 µM | TGI [2]: 25.6 µM | TGI [3]: 9.87 µM | TGI [4]: 20.7 µM | TGI [5]: 43.2 µM | TGI [6]: 22.8 µM | TGI [7]: 31.1 µM | TGI [8]: 53.3 µM | TGI [9]: 22.8 µM | TGI [10]: 65.6 µM | TGI [11]: 37.3 µM | TGI [12]: 9.5 µM | TGI [13]: 24.6 µM | TGI [14]: 42 µM | TGI [15]: 34.7 µM | TGI [16]: 21.3 µM | TGI [17]: 11.2 µM | TGI [18]: 9.97 µM | TGI [19]: 3.21 µM | TGI [20]: 11.8 µM | TGI [21]: 21.4 µM | TGI [22]: 1.45 µM | TGI [23]: 27 µM | TGI [24]: 22.6 µM | TGI [25]: 4.22 µM | TGI [26]: 39.2 µM | TGI [27]: 19 µM | TGI [28]: 22.8 µM | TGI [29]: 26.2 µM | TGI [30]: 25.5 µM | TGI [31]: 24.5 µM | TGI [32]: 8.66 µM | TGI [33]: 10.4 µM | TGI [34]: 0.721 µM | TGI [35]: 33.7 µM | TGI [36]: 9.11 µM | TGI [37]: 29 µM | TGI [38]: 22.8 µM | TGI [39]: 13.4 µM | TGI [40]: 25.1 µM | TGI [41]: 32.9 µM | TGI [42]: 45 µM | TGI [43]: 37.1 µM | TGI [44]: 19.6 µM | TGI [45]: 56.2 µM | TGI [46]: 23.3 µM | TGI [47]: 17.6 µM | TGI [48]: > 53.1 µM | TGI [49]: 51.1 µM | TGI [50]: 17.5 µM | TGI [51]: 31.1 µM | TGI [52]: 3.24 µM | TGI [53]: 1.49 µM | TGI [54]: 21.4 µM | TGI [55]: 10.1 µM | TGI [56]: 34.2 µM | TGI [57]: 27.3 µM | TGI [58]: 2.44 µM | TGI [59]: 21.3 µM | TGI [60]: 4.35 µM | TGI [61]: 29.1 µM | TGI [62]: 23.2 µM | TGI [63]: 7.72 µM | TGI [64]: 52 µM | TGI [65]: 23.8 µM | TGI [66]: 11.3 µM

COC(=O)/C(C#N)=C1\CCC(Nc2cccc(C(F)(F)F)c2)N1C (stereo unspecified)
TGI [1]: > 100 µM | TGI [2]: > 100 µM | TGI [3]: > 100 µM | TGI [4]: > 100 µM | TGI [5]: > 100 µM | TGI [6]: > 100 µM | TGI [7]: > 100 µM | TGI [8]: > 100 µM | TGI [10]: > 100 µM | TGI [11]: > 100 µM | TGI [12]: > 100 µM | TGI [15]: > 100 µM | TGI [16]: > 100 µM | TGI [17]: > 100 µM | TGI [18]: > 100 µM | TGI [19]: > 100 µM | TGI [21]: > 100 µM | TGI [22]: > 100 µM | TGI [23]: > 100 µM | TGI [24]: > 100 µM | TGI [25]: > 100 µM | TGI [26]: > 100 µM | TGI [27]: > 100 µM | TGI [28]: > 100 µM | TGI [31]: > 100 µM | TGI [32]: > 100 µM | TGI [34]: > 100 µM | TGI [35]: > 100 µM | TGI [36]: > 100 µM | TGI [37]: > 100 µM | TGI [38]: > 100 µM | TGI [39]: > 100 µM | TGI [41]: > 100 µM | TGI [42]: > 100 µM | TGI [44]: > 100 µM | TGI [45]: > 100 µM | TGI [50]: > 100 µM | TGI [52]: > 100 µM | TGI [53]: > 100 µM | TGI [55]: > 100 µM | TGI [56]: > 100 µM | TGI [57]: > 100 µM | TGI [59]: > 100 µM | TGI [60]: > 100 µM | TGI [61]: > 100 µM | TGI [63]: > 100 µM | TGI [64]: > 100 µM | TGI [65]: > 100 µM | TGI [66]: > 100 µM

CSC1(C)CC2C(CC1N1CCOCC1)C2(C)C (stereo unspecified)
TGI [1]: > 100 µM | TGI [2]: > 100 µM | TGI [4]: > 100 µM | TGI [5]: > 100 µM | TGI [6]: > 100 µM | TGI [7]: > 100 µM | TGI [8]: > 100 µM | TGI [9]: > 100 µM | TGI [10]: > 100 µM | TGI [11]: > 100 µM | TGI [12]: > 100 µM | TGI [15]: > 100 µM | TGI [17]: > 100 µM | TGI [18]: > 100 µM | TGI [19]: > 100 µM | TGI [20]: > 100 µM | TGI [21]: > 100 µM | TGI [22]: > 100 µM | TGI [23]: > 100 µM | TGI [24]: > 100 µM | TGI [25]: > 100 µM | TGI [26]: > 100 µM | TGI [27]: > 100 µM | TGI [28]: > 100 µM | TGI [29]: > 100 µM | TGI [31]: > 100 µM | TGI [32]: > 100 µM | TGI [33]: > 100 µM | TGI [34]: > 100 µM | TGI [35]: > 100 µM | TGI [36]: > 100 µM | TGI [37]: > 100 µM | TGI [38]: > 100 µM | TGI [39]: > 100 µM | TGI [45]: > 100 µM | TGI [47]: > 100 µM | TGI [55]: > 100 µM | TGI [56]: > 100 µM | TGI [57]: > 100 µM | TGI [59]: > 100 µM | TGI [60]: > 100 µM | TGI [61]: > 100 µM | TGI [62]: > 100 µM | TGI [67]: > 100 µM | TGI [65]: > 100 µM | TGI [66]: > 100 µM

O=c1ccc2ccc(O)c3c4c(=O)ccc5ccc(O)c(c1c23)c54
TGI [1]: 3.27 µM | TGI [2]: 5.28 µM | TGI [3]: 8.46 µM | TGI [4]: 5.86 µM | TGI [5]: 9.29 µM | TGI [6]: 3.13 µM | TGI [8]: 8.61 µM | TGI [9]: 2.16 µM | TGI [11]: 5.28 µM | TGI [12]: 5.59 µM | TGI [15]: 10.7 µM | TGI [16]: 1.65 µM | TGI [17]: 3.71 µM | TGI [18]: 9.12 µM | TGI [21]: 3.2 µM | TGI [22]: 3.77 µM | TGI [23]: 6.75 µM | TGI [24]: 3.34 µM | TGI [25]: 11.7 µM | TGI [26]: 12.2 µM | TGI [27]: 3.72 µM | TGI [28]: 3.22 µM | TGI [29]: 2.69 µM | TGI [31]: 4.37 µM | TGI [32]: 1.83 µM | TGI [33]: 3.97 µM | TGI [34]: 3.64 µM | TGI [36]: 4.81 µM | TGI [37]: 11.6 µM | TGI [42]: 4.86 µM | TGI [47]: 3.73 µM | TGI [50]: 5.08 µM | TGI [52]: 2.63 µM | TGI [53]: 3.08 µM | TGI [55]: 3.43 µM | TGI [57]: 6.71 µM | TGI [59]: 2.83 µM | TGI [60]: 8.53 µM | TGI [61]: 3.46 µM | TGI [62]: 2.59 µM | TGI [67]: 3.63 µM | TGI [63]: 2.42 µM | TGI [64]: 4.85 µM | TGI [65]: 3.3 µM | TGI [66]: 3.64 µM
